Changes are numbered by the printed parent chain.
Columns and labels:
[1] = biological target: T1, P. hybrida EPSPS variant glypR (Gly-Ala, Pro-Ser) (Petunia hybrida, UniProt P11043, G173A/P178S); assay: kinetic characterization of EPSP synthase (Table 4); type: biochemical
T1 sequence (P11043 73-516 G173A/P178S): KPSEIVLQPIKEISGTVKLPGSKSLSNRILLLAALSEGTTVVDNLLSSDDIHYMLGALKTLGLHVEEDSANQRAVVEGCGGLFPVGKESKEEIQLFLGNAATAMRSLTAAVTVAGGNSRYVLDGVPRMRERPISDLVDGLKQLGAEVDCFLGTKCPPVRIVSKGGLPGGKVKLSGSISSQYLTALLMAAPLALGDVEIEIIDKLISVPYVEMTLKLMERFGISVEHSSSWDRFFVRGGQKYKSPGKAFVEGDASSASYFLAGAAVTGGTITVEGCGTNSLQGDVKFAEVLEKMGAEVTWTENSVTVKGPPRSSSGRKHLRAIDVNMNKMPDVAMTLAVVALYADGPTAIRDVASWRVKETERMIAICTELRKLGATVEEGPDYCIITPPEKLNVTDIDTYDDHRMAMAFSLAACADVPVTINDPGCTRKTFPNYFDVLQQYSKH
Experimental: (§1) Final sample volumes are approximately 0.5 ml.

[2] = biological target: T2, P. hybrida EPSPS variant glypR (Pro-Ser) (Petunia hybrida, UniProt P11043, P178S); assay: as above; type: biochemical
T2 sequence (P11043 73-516 P178S): T1 sequence (P11043 73-516 G173A/P178S) with A101G
Experimental: as §1

[3] = test system: EPSPS of the glyphosate sensitive E. indica biotype (wild type, plant crown extract); assay: radiometric EPSP synthase assay, glyphosate inhibition, plant extracts of sensitive biotype; type: biochemical, Eleusine indica; settings: read-out: I50 (glyphosate); 1 mM shikimate-3-phosphate, 0.5 mM PEP, pH 7.0, 25° C.
Experimental: Preparation of extracts and radiometric EPSP synthase assays are performed using methods adapted from published procedures (Padgette et al., J. Biol. Chem. 266:22364-22369 (1991). Crown regions are dissected from whole plants, pulverized under liquid nitrogen with a mortar and pestle, then stored at −80° C. prior to extraction. Homogenates are prepared from 0.5 g tissue per sample in 25 ml extraction buffer (100 mM TrisCl, 10% glycerol, 1 mM EDTA, 1 mM benzamidine, 1 mM dithiothreitol, 1 mM 4-(2-aminoethyl)-benzenesulfonyl floride HCl, 0.1 mM leupeptin, pH 7.4) at 4° C. using a model PT3000 Polytron homogenizer (Brinkman Instuments Inc., Westbury, N.Y.). Debris is removed by 0.2 μm filtration, then the resulting supernatant is concentrated and desalted using an Ultrafree-15 centrifugal filtration unit (cat.#UFV2-BGC-10, Millipore Corp., Bedford, Mass.). Final sample volumes are approximately 0.5 ml. Protein concentrations are determined spectrophotometrically using the Bio-Rad protein assay reagent (cat.#500-0006, Bio-Rad Laboratories, Hercules, Calif.). EPSPS specific activities are determined by assaying 10 μl extract at 25° C. for 5-15 min. […] Reactions are quenched with the addition of 50 μl 9:1 ethanol: 0.1 M acetic acid. […]

[4] = test system: E. coli EPSPS glyphosate-resistant isolate, single amino acid substitution of an alanine for the glycine at position 96; settings: read-out: apparent Ki for glyphosate; alanine for glycine at position 96; cited from earlier work

In the case of `O=C(O)CNCP(=O)(O)O` [glyphosate, N-phosphonomethylglycine], the Ki [1] is reported as 8.5 mM, the Ki [2] is reported as 0.003 mM and the IC50 [3] is reported as about 0.003 mM. The Ki [4] was 4 mM.
